According to US20260297080A1, “BICYCLIC COMPOUNDS AS CDK INHIBITORS” (BeOne Medicines I GmbH, priority 2022, published 2026):

Tests used:
[1] = target: CDK2/Cyclin E1 (Homo sapiens, UniProt P24941); assay: CDK2/Cyclin E1 Biochemical Assay (TR-FRET), 0.060 mM ATP; conditions: 0.15 μM Rb (Ser780)-biotin substrate, pH7.0, 60 min preincubation, 120 min reaction, room temperature
Outline: (§1)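 Inhibitor concentrations up to 10 μM were preincubated with each cyclin–kinase complex for 60 minutes before ATP and biotinylated Rb (Ser780) substrate (0.15 μM) were added. After 120 minutes at room temperature, phosphorylation was quantified by HTRF and IC50 values were fitted with a four-parameter logistic equation.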

[2] = target: CDK1/Cyclin B1 (Homo sapiens, UniProt P06493); assay: CDK1/Cyclin B1 Biochemical Assay (TR-FRET), 0.015 mM ATP; conditions: 0.15 μM Rb (Ser780)-biotin substrate, pH7.0, 60 min preincubation, 120 min reaction, room temperature
CDK1/Cyclin B1, sequence (P06493 whole entry): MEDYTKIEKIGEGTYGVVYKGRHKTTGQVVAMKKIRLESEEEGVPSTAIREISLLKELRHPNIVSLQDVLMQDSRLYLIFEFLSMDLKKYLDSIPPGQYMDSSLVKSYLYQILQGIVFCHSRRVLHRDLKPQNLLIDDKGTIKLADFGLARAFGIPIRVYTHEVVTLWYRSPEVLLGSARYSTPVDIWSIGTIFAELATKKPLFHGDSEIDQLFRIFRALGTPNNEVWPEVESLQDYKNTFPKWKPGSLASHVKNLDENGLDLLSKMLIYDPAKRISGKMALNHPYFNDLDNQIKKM
CDK1/Cyclin B1, sequence (P14635 whole entry partner): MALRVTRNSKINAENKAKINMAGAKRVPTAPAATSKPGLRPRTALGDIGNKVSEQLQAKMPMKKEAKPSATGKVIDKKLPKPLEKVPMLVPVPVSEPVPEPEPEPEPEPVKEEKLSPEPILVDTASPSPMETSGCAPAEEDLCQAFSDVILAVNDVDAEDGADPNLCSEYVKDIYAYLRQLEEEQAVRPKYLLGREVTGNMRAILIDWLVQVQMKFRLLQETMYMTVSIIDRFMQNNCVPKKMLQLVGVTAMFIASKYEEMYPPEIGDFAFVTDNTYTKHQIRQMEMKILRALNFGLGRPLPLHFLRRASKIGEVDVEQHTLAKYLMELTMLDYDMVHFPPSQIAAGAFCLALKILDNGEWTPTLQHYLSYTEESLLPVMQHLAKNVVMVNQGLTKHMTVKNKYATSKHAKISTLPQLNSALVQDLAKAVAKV
Outline: as §1

Row | Structure (SMILES) | IC50 [1] | IC50 [2]
1 | [2H]C([2H])([2H])C1c2cc(Nc3cc([C@@H]4CC[C@H](OC(=O)NCCC)C4)[nH]n3)cc(F)c2N(C([2H])([2H])[2H])S1(=O)=O (relative stereo) [Example 284, cis-3-(3-((7-fluoro-1,3-bis(methyl-d3)-2,2-dioxido-1,3-dihydrobenzo[c]isothiazol-5-yl)amino)-1H-pyrazol-5-yl)cyclopentyl propylcarbamate] | 8.3 nM | 61 nM
2 | [2H]C([2H])([2H])N1c2c(F)cc(Nc3cc([C@@H]4CC[C@H](OC(=O)N[C@@H](C)CC)C4)[nH]n3)cc2CS1(=O)=O (relative stereo) [Example 285, cis-3-(3-((7-fluoro-1-(methyl-d3)-2,2-dioxido-1,3-dihydrobenzo[c]isothiazol-5-yl)amino)-1H-pyrazol-5-yl)cyclopentyl((S)-sec-butyl)carbamate] | 12 nM | 196 nM
3 | [2H]C([2H])([2H])C1c2cc(Nc3cc([C@@H]4CC[C@H](OC(=O)N[C@@H](C)CC)C4)[nH]n3)cc(F)c2N(C([2H])([2H])[2H])S1(=O)=O (relative stereo) [Example 286, cis-3-(3-((7-fluoro-1,3-bis(methyl-d3)-2,2-dioxido-1,3-dihydrobenzo[c]isothiazol-5-yl)amino)-1H-pyrazol-5-yl)cyclopentyl((S)-sec-butyl)carbamate] | 11 nM | 174 nM
4 | [2H]C([2H])([2H])C1c2cc(Nc3cc([C@@H]4CC[C@H](OC(=O)NC5(C)CC5)C4)[nH]n3)cc(F)c2N(C([2H])([2H])[2H])S1(=O)=O (relative stereo) [Example 287, cis-3-(3-((7-fluoro-1,3-bis(methyl-d3)-2,2-dioxido-1,3-dihydrobenzo[c]isothiazol-5-yl)amino)-1H-pyrazol-5-yl)cyclopentyl(1-methylcyclopropyl)carbamate] | 7.7 nM | 77 nM
5 | CC(C)NC(=O)O[C@H]1CC[C@@H](c2cc(Nc3cc(F)c4c(c3)CS(=O)(=O)N4C3CC3)n[nH]2)C1 (relative stereo) [Example 288, cis-3-(3-((1-cyclopropyl-7-fluoro-2,2-dioxido-1,3-dihydrobenzo[c]isothiazol-5-yl)amino)-1H-pyrazol-5-yl)cyclopentyl isopropylcarbamate] | 5.5 nM | 152 nM
6 | CCCNC(=O)O[C@H]1CC[C@@H](c2cc(Nc3cc4c(cc3F)NS(=O)(=O)C4)n[nH]2)C1 (relative stereo) [Example 293, cis-3-(3-((6-fluoro-2,2-dioxido-1,3-dihydrobenzo[c]isothiazol-5-yl)amino)-1H-pyrazol-5-yl)cyclopentyl propylcarbamate] | 64 nM | 1120 nM
7 | CC[C@H](C)NC(=O)O[C@H]1CC[C@@H](c2cc(Nc3cc4c(cc3F)NS(=O)(=O)C4)n[nH]2)C1 (relative stereo) [Example 294, cis-3-(3-((6-fluoro-2,2-dioxido-1,3-dihydrobenzo[c]isothiazol-5-yl)amino)-1H-pyrazol-5-yl)cyclopentyl((S)-sec-butyl)carbamate] | 15 nM | 359 nM
8 | CC1(NC(=O)O[C@H]2CC[C@@H](c3cc(Nc4cc5c(cc4F)NS(=O)(=O)C5)n[nH]3)C2)CC1 (relative stereo) [Example 295, cis-3-(3-((6-fluoro-2,2-dioxido-1,3-dihydrobenzo[c]isothiazol-5-yl)amino)-1H-pyrazol-5-yl)cyclopentyl(1-methylcyclopropyl)carbamate] | 23 nM | 426 nM
9 | CCCNC(=O)O[C@H]1CC[C@@H](c2cc(Nc3cc4c(cc3F)N(CCO)S(=O)(=O)C4)n[nH]2)C1 (relative stereo) [Example 297, cis-3-(3-((6-fluoro-1-(2-hydroxyethyl)-2,2-dioxido-1,3-dihydrobenzo[c]isothiazol-5-yl)amino)-1H-pyrazol-5-yl)cyclopentyl propylcarbamate] | 38 nM | 607 nM
10 | CC1(NC(=O)O[C@H]2CC[C@@H](c3cc(Nc4cc5c(cc4F)N(CCO)S(=O)(=O)C5)n[nH]3)C2)CC1 (relative stereo) [Example 299, cis-3-(3-((6-fluoro-1-(2-hydroxyethyl)-2,2-dioxido-1,3-dihydrobenzo[c]isothiazol-5-yl)amino)-1H-pyrazol-5-yl)cyclopentyl(1-methylcyclopropyl)carbamate] | 9 nM | 239 nM
11 | CC(C)NC(=O)O[C@H]1CC[C@@H](c2cc(Nc3cc4c(cc3F)N(C)S(=O)(=O)C4)n[nH]2)C1 (relative stereo) [Example 300, cis-3-(3-((6-fluoro-1-methyl-2,2-dioxido-1,3-dihydrobenzo[c]isothiazol-5-yl)amino)-1H-pyrazol-5-yl)cyclopentyl isopropylcarbamate] | 36 nM | 513 nM
12 | CC(C)NC(=O)O[C@H]1CC[C@@H](c2cc(Nc3cc4c(cc3F)N(C3COC3)S(=O)(=O)C4)n[nH]2)C1 (relative stereo) [Example 301, cis-3-(3-((6-fluoro-1-(oxetan-3-yl)-2,2-dioxido-1,3-dihydrobenzo[c]isothiazol-5-yl)amino)-1H-pyrazol-5-yl)cyclopentyl isopropylcarbamate] | 12 nM | 404 nM
13 | CC(C)NC(=O)O[C@H]1CC[C@@H](c2cc(Nc3cc4c(cc3F)N(C3CC3)S(=O)(=O)C4)n[nH]2)C1 (relative stereo) [Example 302, cis-3-(3-((1-cyclopropyl-6-fluoro-2,2-dioxido-1,3-dihydrobenzo[c]isothiazol-5-yl)amino)-1H-pyrazol-5-yl)cyclopentyl isopropylcarbamate] | 21 nM | 686 nM
14 | CC(C)NC(=O)O[C@H]1CC[C@@H](c2cc(Nc3ccc4c(c3)NS(=O)(=O)C4(C)C)n[nH]2)C1 (relative stereo) [Example 304, cis-3-(3-((3,3-dimethyl-2,2-dioxido-1,3-dihydrobenzo[c]isothiazol-6-yl)amino)-1H-pyrazol-5-yl)cyclopentyl isopropylcarbamate] | 29 nM | 251 nM
15 | CCCNC(=O)O[C@H]1CC[C@@H](c2cc(Nc3ccc4c(c3)NS(=O)(=O)C4)n[nH]2)C1 (relative stereo) [Example 305, cis-3-(3-((2,2-dioxido-1,3-dihydrobenzo[c]isothiazol-6-yl)amino)-1H-pyrazol-5-yl)cyclopentyl propylcarbamate] | 6.5 nM | 58 nM
16 | CC(C)NC(=O)O[C@H]1CC[C@@H](c2cc(Nc3cc4c(cc3F)CS(=O)(=O)N4)n[nH]2)C1 (relative stereo) [Example 310, cis-3-(3-((5-fluoro-2,2-dioxido-1,3-dihydrobenzo[c]isothiazol-6-yl)amino)-1H-pyrazol-5-yl)cyclopentyl isopropylcarbamate] | 81 nM | 2200 nM
17 | CC(C)NC(=O)O[C@H]1CC[C@@H](c2cc(Nc3cc(F)c4c(c3)NS(=O)(=O)C4)n[nH]2)C1 (relative stereo) [Example 311, cis-3-(3-((4-fluoro-2,2-dioxido-1,3-dihydrobenzo[c]isothiazol-6-yl)amino)-1H-pyrazol-5-yl)cyclopentyl isopropylcarbamate] | 6 nM | 158 nM

Compounds with a lower IC50 [1], results first:

Row | IC50 [1] | IC50 [2] | Structure (SMILES)
18 | 4.7 nM | 166 nM | CC(C)CNC(=O)O[C@H]1CC[C@@H](c2cc(Nc3cc4c(cc3F)N(CCO)S(=O)(=O)C4)n[nH]2)C1 (relative stereo) [Example 298, cis-3-(3-((6-fluoro-1-(2-hydroxyethyl)-2,2-dioxido-1,3-dihydrobenzo[c]isothiazol-5-yl)amino)-1H-pyrazol-5-yl)cyclopentyl isobutylcarbamate]
19 | 4.3 nM | 147 nM | CC(C)NC(=O)O[C@H]1CC[C@@H](c2cc(Nc3ccc4c(c3F)NS(=O)(=O)C4)n[nH]2)C1 (relative stereo) [Example 312, cis-3-(3-((7-fluoro-2,2-dioxido-1,3-dihydrobenzo[c]isothiazol-6-yl)amino)-1H-pyrazol-5-yl)cyclopentyl isopropylcarbamate]
20 | 3 nM | 56 nM | CC(C)NC(=O)O[C@H]1CC[C@@H](c2cc(Nc3cc(F)c4c(c3)CS(=O)(=O)N4C3COC3)n[nH]2)C1 (relative stereo) [Example 283, cis-3-(3-((7-fluoro-1-(oxetan-3-yl)-2,2-dioxido-1,3-dihydrobenzo[c]isothiazol-5-yl)amino)-1H-pyrazol-5-yl)cyclopentyl isopropylcarbamate]
21 | 2.8 nM | 27 nM | CC[C@H](C)NC(=O)O[C@H]1CC[C@@H](c2cc(Nc3ccc4c(c3)NS(=O)(=O)C4)n[nH]2)C1 (relative stereo) [Example 306, cis-3-(3-((2,2-dioxido-1,3-dihydrobenzo[c]isothiazol-6-yl)amino)-1H-pyrazol-5-yl)cyclopentyl((S)-sec-butyl)carbamate]
22 | 2.5 nM | 18 nM | CC1(NC(=O)O[C@H]2CC[C@@H](c3cc(Nc4ccc5c(c4)NS(=O)(=O)C5)n[nH]3)C2)CC1 (relative stereo) [Example 307, cis-3-(3-((2,2-dioxido-1,3-dihydrobenzo[c]isothiazol-6-yl)amino)-1H-pyrazol-5-yl)cyclopentyl(1-methylcyclopropyl)carbamate]
23 | 2.2 nM | 26 nM | CC(C)NC(=O)O[C@H]1CC[C@@H](c2cc(Nc3ccc4c(c3)N(C)S(=O)(=O)C4)n[nH]2)C1 (relative stereo) [Example 308, cis-3-(3-((1-methyl-2,2-dioxido-1,3-dihydrobenzo[c]isothiazol-6-yl)amino)-1H-pyrazol-5-yl)cyclopentyl isopropylcarbamate]
24 | 1.4 nM | 6.1 nM | CC(C)NC(=O)O[C@H]1CC[C@@H](c2cc(Nc3ccc4c(c3)N(CCO)S(=O)(=O)C4)n[nH]2)C1 (relative stereo) [Example 309, cis-3-(3-((1-(2-hydroxyethyl)-2,2-dioxido-1,3-dihydrobenzo[c]isothiazol-6-yl)amino)-1H-pyrazol-5-yl)cyclopentyl isopropylcarbamate]
